Experimental data taken from patent US20200264182A1, “METHOD FOR DETECTING PROSTATE CANCER” (J-OIL MILLS, INC., priority 2017, published 2020).

Key:
[1] = FAC binding constant; conditions: at 25° C.
Method: (§1) Details of the FAC method are described in Patent Document 2 filed by some of the present applicants, for example.
(§2) Binding constants (at 25° C.) of PhoSL, SRL, NSL and LSL belonging to the fucose α1→6 specific lectin for various sugar chains are shown in Tables 2 to 5.

[2] = test system: serum fucosylated PSA; assay: Sandwich ELISA, anti-PSA antibody and biotin-labeled lectin; assay type: binding, human; conditions: for Δ (=A − B): reaction value of Prostate cancer 4 minus Healthy 1; for lectin reaction value B of Healthy 1: serum of Healthy 1; for lectin reaction value A of Prostate cancer 4: serum of Prostate cancer 4, GS 6 (3 + 3)
Method: The anti-PSA antibody from which sugar chains had been removed was diluted to 5 μg/mL with PBS. 25 μL of this diluted solution was added to each well of an ELISA plate and allowed to stand at 37° C. for 12 hours, and then the additive solution was discarded.
150 μL of PBS containing 0.05% Tween 20 (product name: polyoxyethylene sorbitan monolaurate, from Nacalai Tesque, Inc.) was added to each well, and then the additive solution was discarded. This manipulation was repeated three times in total.
25 μL of 1% BSA/PBS was added to each well and allowed to stand at 37° C. for 1 hour, and then the additive solution was discarded.
150 μL of PBS containing 0.05% Tween 20 was added to each well, and then the additive solution was discarded. This manipulation was repeated three times in total.
To graph a calibration curve, 25 μL of the fucosylated PSA reference standard diluted with 1% BSA/PBS to a concentration of 0 to 200 ng/mL was added to each well and allowed to stand at room temperature for 1 hour, and then the additive solution was discarded. In addition, to detect the fucosylated PSA in the serum of the subject by the lectin, 25 μL of serum of “Healthy 1” and “Prostate cancer 4” 2-fold diluted with PBS was added to each well and allowed to stand at room temperature for 1 hour, and then the additive solution was discarded.
In Reference Example 1, 25 μL of a biotin-labeled PhoSL diluted to 0.1 μg/mL with 0.1% BSA/PBS (pH 7.4) was added to each well and allowed to stand at 4° C. for 30 minutes, and then the additive solution was discarded. In Example 1, 25 μL of a biotin-labeled PhoSL diluted to 0.1 μg/mL with 0.1% BSA/10-fold diluted PBS+glycine-NaOH (pH 9.6) was added to each well and allowed to stand at 4° C. for 30 minutes, and then the additive solution was discarded.
25 μL of a horseradish peroxidase (HRP)-labeled streptavidin solution (from Vector Laboratories, Inc., concentration: 0.4 μg/mL, in 1% BSA/PBS) was added to each well and allowed to stand at room temperature for 30 minutes, and then the additive solution was discarded.
25 μL of chromogenic substrate for HRP (product name: TMB, from Kirkegaard & Perry Laboratories, Inc.) was added to each well and allowed to stand at room temperature for 10 minutes.
25 μL of 1M phosphoric acid was added to terminate the reaction.
Absorbance (Ab) at 450 nm and 630 nm was measured using a plate reader, and a measurement (Ab450-630) was obtained.
A calibration curve was graphed by plotting signals (reaction values, Ab450-630) of the fucosylated PSA reference standard with the biotin-labeled PhoSL. A Signal (Ab450-630) of the biotin-labeled PhoSL corresponding to the fucosylated PSA concentration of 10 ng/mL was defined as 10 U/mL.
The signals of biotin-labeled PhoSL (Ab450-630) for the serum fucosylated PSA in the subject samples A were assigned to the calibration curve to calculate reaction values (unit: U/mL).
The PhoSL reaction values for the subject samples A were measured by the same operation as in Example 1. From the PhoSL reaction values, an average value and a median value were determined. Furthermore, a standard cutoff value (89.7 U/mL) was used to determine a detection rate (positive rate) of the prostate cancer patients, and a false detection rate (false positive rate) of the healthy persons.
Comparative Example 2 in Table 9 indicates results of detecting the serum fucosylated PSA using AAL (AAL reaction values) in the subject samples A. Specifically, in Reference Example 1, AAL reaction values were measured in the same manner as in Reference Example 1 except that the biotin-labeled PhoSL was replaced with a biotin-labeled AAL. A standard cut-off value for the AAL reaction values was 894.8 U/mL. As in Example 2, an average value, a median value, a positive rate and a false positive rate were determined from the AAL reaction values.

[3] = FAC binding constant (Table 5 entry); conditions: Table 5: sugar chain having no fucose; at 25° C.
Method: as §1, §2

Question: For “SRL: fucose α1→6 specific lectin that can be extracted from Stropharia rugosoannulata, SEQ ID No. 2”, which “Binding constant for sugar chain No. 701” value ([1]; sugar chain having no fucose) is on record?
Answer: The value was <1000 M⁻¹.

Question: And the “Binding constant for sugar chain No. 702” value ([1]; sugar chain having no fucose)?
Answer: The value was <1000 M⁻¹.

Question: What about the “Binding constant for sugar chain No. 703” value ([1]; sugar chain having no fucose) of the same substance?
Answer: Its value is <1000 M⁻¹.

Question: And the “Binding constant for sugar chain No. 704” value ([1]; sugar chain having no fucose)?
Answer: The value was <1000 M⁻¹.

Question: What about the “Binding constant for sugar chain No. 705” value ([1]; sugar chain having no fucose) of the same substance?
Answer: Its value is <1000 M⁻¹.

Question: And the “Binding constant for sugar chain No. 706” value ([1]; sugar chain having no fucose)?
Answer: Its value is <1000 M⁻¹.

Question: What about the “Binding constant for sugar chain No. 707” value ([1]; sugar chain having no fucose) of the same substance?
Answer: The value was <1000 M⁻¹.

Question: What about the “Binding constant for sugar chain No. 708” value ([1]; sugar chain having no fucose) of the same substance?
Answer: Its value is <1000 M⁻¹.

Question: What about the “Binding constant for sugar chain No. 709” value ([1]; sugar chain having no fucose) of the same substance?
Answer: The value was <1000 M⁻¹.

Question: And the “Binding constant for sugar chain No. 710” value ([1]; sugar chain having no fucose)?
Answer: Its value is <1000 M⁻¹.

Question: And the “Binding constant for sugar chain No. 711” value ([1]; sugar chain having no fucose)?
Answer: Its value is <1000 M⁻¹.

Question: And the “Binding constant for sugar chain No. 712” value ([1]; sugar chain having no fucose)?
Answer: The value was <1000 M⁻¹.

Question: And the “Binding constant for sugar chain No. 713” value ([1]; sugar chain having no fucose)?
Answer: Its value is <1000 M⁻¹.

Question: What about the “Binding constant for sugar chain No. 715” value ([1]; sugar chain having no fucose) of the same substance?
Answer: Its value is <1000 M⁻¹.

Question: And the “Binding constant for sugar chain No. 716” value ([1]; sugar chain having no fucose)?
Answer: The value was <1000 M⁻¹.

Question: And the “Binding constant for sugar chain No. 717” value ([1]; sugar chain having no fucose)?
Answer: The value was <1000 M⁻¹.

Question: And the “Binding constant for sugar chain No. 724” value ([1]; sugar chain having no fucose)?
Answer: Its value is <1000 M⁻¹.

Question: And the “Binding constant for sugar chain No. 725” value ([1]; sugar chain having no fucose)?
Answer: The value was <1000 M⁻¹.

Question: And the “Binding constant for sugar chain No. 732” value ([1]; sugar chain having no fucose)?
Answer: The value was <1000 M⁻¹.

Question: What about the “Binding constant for sugar chain No. 733” value ([1]; sugar chain having no fucose) of the same substance?
Answer: Its value is <1000 M⁻¹.

Question: And the “Binding constant for sugar chain No. 734” value ([1]; sugar chain having no fucose)?
Answer: The value was <1000 M⁻¹.

Question: And the “Binding constant for sugar chain No. 735” value ([1]; sugar chain having no fucose)?
Answer: The value was <1000 M⁻¹.

Question: And the “Binding constant for sugar chain No. 736” value ([1]; sugar chain having no fucose)?
Answer: The value was <1000 M⁻¹.

Question: What about the “Binding constant for sugar chain No. 737” value ([1]; sugar chain having no fucose) of the same substance?
Answer: The value was <1000 M⁻¹.

Question: And the “Binding constant for sugar chain No. 738” value ([1]; sugar chain having no fucose)?
Answer: Its value is <1000 M⁻¹.

Question: What about the “Binding constant for sugar chain No. 901” value ([1]; sugar chain having no fucose) of the same substance?
Answer: The value was <1000 M⁻¹.

Question: And the “Binding constant for sugar chain No. 902” value ([1]; sugar chain having no fucose)?
Answer: The value was <1000 M⁻¹.

Question: And the “Binding constant for sugar chain No. 903” value ([1]; sugar chain having no fucose)?
Answer: Its value is <1000 M⁻¹.

Question: What about the “Binding constant for sugar chain No. 905” value ([1]; sugar chain having no fucose) of the same substance?
Answer: Its value is <1000 M⁻¹.

Question: What about the “Binding constant for sugar chain No. 906” value ([1]; sugar chain having no fucose) of the same substance?
Answer: Its value is <1000 M⁻¹.

Question: And the “Binding constant for sugar chain No. 907” value ([1]; sugar chain having no fucose)?
Answer: The value was <1000 M⁻¹.

Question: And the “Binding constant for sugar chain No. 015” value ([1]; sugar chain having α1→6 fucose)?
Answer: Its value is 49000 M⁻¹.

Question: What about the “Binding constant for sugar chain No. 201” value ([1]; sugar chain having α1→6 fucose) of the same substance?
Answer: Its value is 64000 M⁻¹.

Question: And the “Binding constant for sugar chain No. 202” value ([1]; sugar chain having α1→6 fucose)?
Answer: The value was 61000 M⁻¹.

Question: What about the “Binding constant for sugar chain No. 203” value ([1]; sugar chain having α1→6 fucose) of the same substance?
Answer: The value was 52000 M⁻¹.

Question: And the “Binding constant for sugar chain No. 401” value ([1]; sugar chain having α1→6 fucose)?
Answer: Its value is 57000 M⁻¹.

Question: What about the “Binding constant for sugar chain No. 402” value ([1]; sugar chain having α1→6 fucose) of the same substance?
Answer: Its value is 44000 M⁻¹.

Question: And the “Binding constant for sugar chain No. 403” value ([1]; sugar chain having α1→6 fucose)?
Answer: The value was 56000 M⁻¹.

Question: What about the “Binding constant for sugar chain No. 404” value ([1]; sugar chain having α1→6 fucose) of the same substance?
Answer: Its value is 58000 M⁻¹.

Question: And the “Binding constant for sugar chain No. 405” value ([1]; sugar chain having α1→6 fucose)?
Answer: Its value is 54000 M⁻¹.

Question: And the “Binding constant for sugar chain No. 406” value ([1]; sugar chain having α1→6 fucose)?
Answer: Its value is 38000 M⁻¹.

Question: And the “Binding constant for sugar chain No. 407” value ([1]; sugar chain having α1→6 fucose)?
Answer: The value was 10000 M⁻¹.

Question: And the “Binding constant for sugar chain No. 410” value ([1]; sugar chain having α1→6 fucose)?
Answer: The value was 39000 M⁻¹.

Question: What about the “Binding constant for sugar chain No. 418” value ([1]; sugar chain having α1→6 fucose) of the same substance?
Answer: Its value is 4300 M⁻¹.

Question: And the “Binding constant for sugar chain No. 601” value ([1]; sugar chain having α1→6 fucose)?
Answer: The value was 10000 M⁻¹.

Question: And the “Binding constant for sugar chain No. 602” value ([1]; sugar chain having α1→6 fucose)?
Answer: The value was 32000 M⁻¹.

Question: What about the “Δ (=A − B)” value ([2]; pH in lectin reaction 7.4) of the same substance?
Answer: The value was 126.3 U/mL.

Question: What about the “Δ (=A − B)” value ([2]; pH in lectin reaction 9.6) of the same substance?
Answer: The value was 217.7 U/mL.

Question: And the “lectin reaction value B of Healthy 1” value ([2]; pH in lectin reaction 7.4)?
Answer: The value was 20.0 U/mL.

Question: And the “lectin reaction value B of Healthy 1” value ([2]; pH in lectin reaction 9.6)?
Answer: The value was 16.8 U/mL.

Question: What about the “lectin reaction value A of Prostate cancer 4” value ([2]; pH in lectin reaction 7.4) of the same substance?
Answer: The value was 146.3 U/mL.

Question: What about the “lectin reaction value A of Prostate cancer 4” value ([2]; pH in lectin reaction 9.6) of the same substance?
Answer: The value was 234.5 U/mL.

Question: What about the “Binding constant for sugar chain No. 728” value [3] of the same substance?
Answer: Its value is <1000 M⁻¹.
